This is an account of results in PMC12758200, “Inhibition of lysosomal LAMTOR1 increases autophagy by suppressing the MTORC1 pathway to ameliorate lipid accumulations in MAFLD” (Autophagy, 2025).

Assay [1] addresses LAMTOR1 (late endosomal/lysosomal adaptor, MAPK and MTOR activator 1) (Mus musculus, UniProt Q9CQ22). Nature of the assay: dose-dependent DARTS western blot in 3T3-L1 lysate; CETSA and isothermal dose-response CETSA. The class given is biochemical.
Assay [2] addresses T1, LAMTOR1 (Mus musculus, UniProt Q9CQ22, L22A).
T1 construct: MYC-LAMTOR1^L22A
Nature of the assay: DARTS in lysate of transfected HEK293 cells, […] ACA. The class given is cell-based.

LAMTOR1 (late endosomal/lysosomal adaptor, MAPK and MTOR activator 1), sequence (Q9CQ22 2-161): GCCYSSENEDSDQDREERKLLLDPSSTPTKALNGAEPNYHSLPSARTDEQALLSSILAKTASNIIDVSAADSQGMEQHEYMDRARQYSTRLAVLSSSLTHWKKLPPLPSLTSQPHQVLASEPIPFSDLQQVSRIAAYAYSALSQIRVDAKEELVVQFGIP
T1 sequence (Q9CQ22 2-161 L22A): as the sequence (Q9CQ22 2-161) above, with L21A counted along it

As a reminder, the EC50 is the concentration needed to bring the measured effect to its halfway point. Low readings indicate higher potency in that assay, high ones lower potency in that assay. `COc1ccc(-c2cc(=O)c3c(O)cc(O)cc3o2)cc1` [ACA, 5,7-dihydroxy-4’methoxyflavone]: the half-maximal effective concentration (EC50) in assay [1] was ~44 µM. Also, the “% increase in stability” value in assay [2] is listed as 35.7 % increase in stability.
